Assay results reported in the supplement of paper PMC11579375.

Columns and labels:
Test in all cases: area under the viability dose-response curve (AUC) (AUC (arbitrary units, max 500 = no viability loss)); higher = less sensitive (higher viability)
Conditions in all cases: exposure time: 120 h; concentration range: 0.1 nM - 10 µM, 6 doses
135F2 = system: 135F2 (fetal-II hepatoblastoma organoid with high liver markers)
Method: (§1)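 Patient-derived hepatoblastoma tumor organoids (about 50 organoids per well, 384-well plates, medium with 5% BME) were treated with the PMC pediatric cancer drug library. Each drug was tested in duplicate at 6 concentrations (0.1 nM to 10 µM, 10-fold steps).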

27F1 = system: 27F1 (fetal-I hepatoblastoma organoid with intermediate liver markers)
Method: as §1

8F1 = system: 8F1 (fetal-I hepatoblastoma organoid with intermediate liver markers)
Method: as §1

3E = system: 3E (embryonal-type hepatoblastoma organoid)
Method: as §1

96F1 = system: 96F1 (fetal-I hepatoblastoma organoid with intermediate liver markers)
Method: as §1

22E = system: 22E (embryonal-type hepatoblastoma organoid)
Method: as §1

17E = system: 17E (embryonal-type hepatoblastoma organoid)
Method: as §1

10F2 = system: 10F2 (fetal-II hepatoblastoma organoid with high liver markers)
Method: as §1

13F2 = system: 13F2 (fetal-II hepatoblastoma organoid with high liver markers)
Method: as §1

13E = system: 13E (embryonal-type hepatoblastoma organoid)
Method: as §1

17F1 = system: 17F1 (fetal-I hepatoblastoma organoid with intermediate liver markers)
Method: as §1

| SMILES | area under the viability dose-response curve (135F2) | area under the viability dose-response curve (27F1) | area under the viability dose-response curve (8F1) | area under the viability dose-response curve (3E) | area under the viability dose-response curve (96F1) | area under the viability dose-response curve (22E) | area under the viability dose-response curve (17E) | area under the viability dose-response curve (10F2) | area under the viability dose-response curve (13F2) | area under the viability dose-response curve (13E) | area under the viability dose-response curve (17F1) |
| --- | --- | --- | --- | --- | --- | --- | --- | --- | --- | --- | --- |
| COc1cc2nc(C)nc(N[C@H](C)c3cc(N)cc(C(F)(F)F)c3)c2cc1O[C@H]1CCOC1 [BI-3406] | 472 | 481 | > 500 | > 500 | 413 | – | – | – | – | – | – |
| CC(C)(CN1C(=O)C(Cl)=C(Cl)C1=O)CN1C(=O)C(Cl)=C(Cl)C1=O | 497 | > 500 | > 500 | > 500 | > 500 | 427 | – | – | – | – | – |
| NC(=O)c1cccc2cn(-c3ccc([C@@H]4CCCNC4)cc3)nc12 [Niraparib] | 458 | 478 | > 500 | 461 | 492 | – | 495 | 459 | 455 | 472 | 490 |
| CN(C)C(=O)c1cc2cnc(Nc3ccc(N4CCNCC4)cn3)nc2n1C1CCCC1 [Ribociclib] | 461 | 442 | 470 | 404 | 472 | – | 406 | 442 | 422 | 446 | 473 |
| CO[C@@H](C)Cn1c(=O)n(C)c2cnc3ccc(-c4cncc(C(C)(C)O)c4)cc3c21 [Samotolisib] | 361 | 424 | 442 | 306 | 406 | – | 357 | 372 | 334 | 364 | 446 |
| O=NN(CCCl)C(=O)NC1CCCCC1 [Lomustine] | 487 | > 500 | > 500 | 446 | 470 | 455 | – | – | – | – | – |
| Nc1cc(F)ccc1NC(=O)c1ccc(CNC(=O)/C=C/c2cccnc2)cc1 [Tucidinostat] | 443 | 458 | 472 | 432 | 474 | – | – | – | – | – | – |
| N#CC1(c2ccc(NC(=O)c3cccnc3NCc3ccncc3)cc2)CCCC1 [Apatinib] | 470 | > 500 | 498 | 491 | 481 | 438 | 476 | 490 | 484 | 497 | – |
| O=C(/C=C\n1cnc(-c2cc(C(F)(F)F)cc(C(F)(F)F)c2)n1)NNc1cnccn1 [Selinexor] | 378 | 415 | 489 | 349 | 395 | – | 387 | 360 | 319 | 345 | 443 |
| O=C(Nc1ccc(Cl)c(C(F)(F)F)c1)NC1CCC(Oc2ccc(C(F)(F)F)cn2)CC1 (centres undefined) [UC2288] | 468 | 490 | 486 | 371 | 484 | 477 | – | – | – | – | – |
| O=C(O)C1(C(=O)O)CCC1.[NH2-].[NH2-].[Pt+2] [Carboplatin] | 494 | 487 | 433 | 478 | 476 | > 500 | 491 | 470 | 462 | – | 494 |
| N[C@@H]1CCCN(c2c(/C=C3\SC(=O)NC3=O)cccc2-c2ccccc2)C1 [AZD1208] | 487 | 471 | > 500 | 430 | > 500 | – | – | – | – | – | – |
| CNC(=O)c1cc(Oc2ccc(NC(=O)Nc3ccc(Cl)c(C(F)(F)F)c3)c(F)c2)ccn1 [Regorafenib] | 404 | 447 | 290 | 387 | 452 | – | 456 | 389 | 430 | 418 | 428 |
| CC(=O)[C@]1(O)Cc2c(O)c3c(c(O)c2[C@@H](O[C@H]2C[C@H](N)[C@H](O)[C@H](C)O2)C1)C(=O)c1ccccc1C3=O [Idarubicin] | 143 | 273 | 373 | 234 | 215 | 313 | – | – | – | – | – |
| Cn1nccc1Nc1nccc(-c2cc3c(s2)C(C)(C)N(CCN2CCOCC2)C3=O)n1 [Temuterkib] | 409 | 440 | > 500 | 443 | 484 | > 500 | – | – | – | – | – |
| O=P(O)(NCCCl)NCCCl [Palifosfamide (Ifosfamide)] | – | – | – | – | – | – | 473 | 474 | 498 | 493 | 477 |
| Cn1cc(-c2cc3c(N4CCN(c5ncc([C@@](C)(N)c6ccc(F)cc6)cn5)CC4)ncnn3c2)cn1 [Avapritinib] | 437 | 473 | 478 | 455 | 452 | 433 | – | – | – | – | – |
| Cc1sc2c(c1C)C(c1ccc(Cl)cc1)=N[C@@H](CC(=O)NCCCN1CCN(C)CC1)c1nnc(C)n1-2 [(S)-JQ-35] | 388 | 447 | 345 | 309 | 496 | 410 | – | – | – | – | – |
| COCc1c(-c2cc3cc(C)cc(OC)c3s2)c2c(N)ncnn2c1CN1CCNC(=O)C1 [Rogaratinib] | 473 | 475 | 496 | 361 | 485 | 440 | – | – | – | – | – |
| CC(=O)Nc1cccc(-n2c(=O)n(C3CC3)c(=O)c3c(Nc4ccc(I)cc4F)n(C)c(=O)c(C)c32)c1 [Trametinib] | 281 | 380 | > 500 | 331 | 418 | – | 394 | 172 | 214 | 396 | 428 |
| CC[C@H](C)n1cc(C)c2c(C(=O)NCc3c(C)cc(C)[nH]c3=O)cc(-c3ccc(N4CCNCC4)nc3)cc21 [GSK-126] | > 500 | 499 | > 500 | 458 | > 500 | > 500 | – | – | – | – | – |

| SMILES | area under the viability dose-response curve (135F2) | area under the viability dose-response curve (27F1) | area under the viability dose-response curve (8F1) | area under the viability dose-response curve (3E) | area under the viability dose-response curve (96F1) | area under the viability dose-response curve (22E) | area under the viability dose-response curve (17E) | area under the viability dose-response curve (10F2) | area under the viability dose-response curve (13F2) | area under the viability dose-response curve (13E) | area under the viability dose-response curve (17F1) |
| --- | --- | --- | --- | --- | --- | --- | --- | --- | --- | --- | --- |
| CC(C)n1c(=O)n(C)c2cnc3cc(F)c(-c4ccc(OCCCN5CCCCC5)nc4)cc3c21 [AZD1390] | 440 | > 500 | 486 | 491 | 471 | > 500 | – | – | – | – | – |
| CC1(C)CCC(CN2CCN(c3ccc(C(=O)NS(=O)(=O)c4ccc(NCC5CCOCC5)c([N+](=O)[O-])c4)c(Oc4cnc5[nH]ccc5c4)c3)CC2)=C(c2ccc(Cl)cc2)C1 [Venetoclax] | 470 | 464 | 465 | 472 | 461 | – | 465 | 435 | 471 | 456 | 468 |
| COc1cc2/c(=N/c3ccc(Br)cc3F)nc[nH]c2cc1OCC1CCN(C)CC1 [Vandetanib] | 428 | 446 | 487 | 474 | 410 | – | 429 | 340 | 373 | 459 | 449 |
| Cn1cnc2c(F)c(Nc3ccc(Br)cc3Cl)c(C(=O)NOCCO)cc21 [Selumetinib] | 430 | 464 | > 500 | > 500 | 491 | – | > 500 | 369 | 412 | 499 | > 500 |
| CCN(CC)CCNC(=O)c1c(C)[nH]c(/C=C2\C(=O)Nc3ccc(F)cc32)c1C [Sunitinib] | 437 | 498 | 461 | 471 | 464 | – | 424 | 385 | 419 | 463 | > 500 |
| N#Cc1c(Oc2ccc(F)c(NC(=O)Cc3cccc(C(F)(F)F)c3)c2)ccc2nc(NC(=O)C3CC3)sc12 [TAK632] | 393 | 467 | 478 | 472 | 417 | 455 | – | – | – | – | – |
| O=c1[nH]c(=O)n([C@@H]2O[C@H](CO)[C@@H](O)[C@H]2O)cc1F [5-Fluorouridine] | 303 | 364 | 447 | 319 | 333 | 420 | – | – | – | – | – |
| CNCc1ccccc1-c1csc([C@@H](C)Nc2nc(C)nc3cc(OC)c(OC)cc23)c1 [BAY-293] | 446 | 488 | > 500 | 458 | 461 | – | – | – | – | – | – |
| COc1cc2c(cc1O)CCN[C@]21CS[C@@H]2c3c(OC(C)=O)c(C)c4c(c3[C@H](COC1=O)N1[C@@H]2[C@H]2c3c(cc(C)c(OC)c3O)C[C@@H]([C@@H]1O)N2C)OCO4 [Trabectedin] | 57.9 | 117 | 144 | 24.1 | 84.9 | 133 | – | – | – | – | – |
| CC(C)(O)c1cc(Nc2cc(Oc3cn(C4CC4)nc3C3CCOCC3)ccn2)ccn1 | > 500 | > 500 | 499 | > 500 | > 500 | – | – | – | – | – | – |
| COc1c(OCCCN2CCOCC2)ccc2c1N=C(NC(=O)c1cnc(N)nc1)N1CCN=C21 [Copanlisib] | 315 | 485 | 390 | > 500 | 352 | 300 | – | – | – | – | – |
| O=C(NC[C@H](O)CO)c1ccncc1Nc1ccc(I)cc1F [Pimasertib] | 393 | 457 | > 500 | 456 | 467 | 445 | – | – | – | – | – |
| Cc1c(Cl)ccc2c1N=C/C2=C\c1[nH]c(=O)n(C(C(=O)NC(CO)CO)c2ccc(F)c(F)c2)c1O (centres undefined) [RO-5963] | 459 | – | – | – | 446 | 449 | – | – | – | – | – |
| Cc1cnc(CNC(=O)c2c(=O)c3ccc(N4CCCN(C)CC4)nc3n3c2sc2ccccc23)cn1 [Pidnarulex] | 402 | 489 | 472 | 396 | 453 | 436 | – | – | – | – | – |
| Cn1cc(-n2cnc3c(NCc4nc5cc(Cl)c(Cl)cc5[nH]4)nc(N4CCOCC4)nc32)cn1 [SR-4835] | 277 | 264 | 292 | 196 | 279 | 327 | – | – | – | – | – |
| O=C(O)C(=O)O.[NH-][C@@H]1CCCC[C@H]1[NH-].[Pt+2] [Oxaliplatin] | – | 481 | 486 | 490 | – | > 500 | > 500 | 457 | 488 | – | > 500 |
| CN(C)CCNC(=O)c1cccn2c(=O)c3cc4ccccc4cc3nc12 [BMH-21] | 416 | 434 | 408 | 430 | 445 | 466 | – | – | – | – | – |
| O=P1(N(CCCl)CCCl)NC(OO)CCO1 (centres undefined) [4-Hydroperoxy cyclophosphamide (Cyclophosphamide)] | – | – | – | – | – | – | > 500 | 465 | > 500 | > 500 | > 500 |
| CC1(N)CCN(c2cnc(-c3cccc(Cl)c3Cl)c(N)n2)CC1 [SHP099] | – | 464 | > 500 | 473 | – | – | > 500 | 430 | 479 | 500 | 483 |
| C[C@@H]1C[C@H](C)CN(S(=O)(=O)c2ccc3c(c2)C(=NO)c2cc(S(=O)(=O)N4C[C@H](C)C[C@H](C)C4)ccc2C3=NO)C1 [Tegavivint] | – | – | 338 | 236 | – | – | – | – | – | – | – |
| NC(=O)/C(=C/n1cnc(-c2cc(C(F)(F)F)cc(C(F)(F)F)c2)n1)c1cncnc1 [Eltanexor] | 371 | 429 | 469 | 345 | 406 | – | – | – | – | – | – |
